Measured values: patent publication US7531555B2, “Compositions and methods for selective inhibition of nicotine acetylcholine receptors” (University of Florida Research Foundation, Inc., priority 2003, dated 2009)
Read-outs that look alike come from different tables or passages of the source.

How the values were obtained:
mice = test: Locomotor activity, nicotine-induced hypomotility; format: in vivo; conditions: for Locomotor Activity # Interrupts (Mean ± SEM): s.c.
Protocol: Animals. Male ICR mice (20-25 g) obtained from Harlan Laboratories (Indianapolis, Ind.) were used throughout the study. Animals were housed in groups of six and had free access to food and water. Adult, male Long-Evans rats (350-460 g), obtained from Harlan (Dublin, Va.), were individually housed in a temperature-controlled (20-22° C.) environment with a 12-hour light-dark cycle (lights on at 7 a.m.). Rats were maintained within the indicated weight range by restricted post-session feeding and had ad libitum water in their home cages. Rats were drug-naive at the beginning of the study. Animals were housed in an AALAC approved facility and the study was approved by the Institutional Animal Care and Use Committee of Virginia Commonwealth University.
Locomotor activity. Mice were placed into individual Omnitech photocell activity cages (28×16.5 cm) immediately after s.c. administration of either 0.9% saline or nicotine (6.2 μmol/kg or 1 mg/kg) and were allowed to acclimate for 10 minutes. Interruptions of the photocell beams (two banks of eight cells each) were then recorded for the next 10 minutes. Data were expressed as percentage of depression where % depression=[1−(counts from nicotine-treated animals/counts from vehicle-treated animals)]×100. Mice were pretreated s.c. with either saline or TMPH 10 minutes before nicotine.
Eight to twelve mice were tested in each treatment group and each animal was tested only once.
Statistical analysis. Statistical analysis of all analgesic and in vivo studies was performed using either t-test or analysis of variance (ANOVA) with Tukey's test post hoc test when appropriate. All differences were considered significant at p<0.05. AD50 values with 95% CL for behavioral data were calculated by unweighted least-squares linear regression as described by Tallarida and Murray (Tallarida and Murray Manual of Pharmacological Calculations with Computer Programs. 1987, Springer-Verlag, New York).

Rat α6/3β2β3 = biological target: T1, Rat α6/3β2β3 (Rattus norvegicus, UniProt P04757+P12390+P12391+P43143); test: Voltage clamp of Xenopus oocytes expressing α6/3 chimera with β2 and β3; format: cell-based
T1 construct: evaluation of the effects of the α6 extracellular domain; remainder of rat α3 subunit (transmembrane and intracellular part); expressed in transfected cells; host or cells: Xenopus laevis oocytes injected with subunit cRNAs; α6/3 clone from Michael McIntosh (University of Utah), corrected in house by QuickChange
Protocol: Mature (>9 cm) female Xenopus laevis African frogs (NASCO, Ft. Atkinson, Wis.) were used as a source of oocytes. Prior to surgery, frogs were anesthetized by placing the animal in a 1.5 g/l solution of MS222 (3-aminobenzoic acid ethyl ester) for 30 minutes. Oocytes were removed from an incision made in the abdomen.
In order to remove the follicular cell layer, harvested oocytes were treated with 1.25 mg/ml collagenase from Worthington Biochemical Corporation (Freehold, N.J.) for 2 hours at room temperature in calcium-free Barth's solution (88 mM NaCl, 10 mM HEPES pH 7.6, 0.33 mM MgSO4, 0.1 mg/ml gentamicin sulfate). Subsequently, stage 5 oocytes were isolated and injected with 50 nl (5-20 ng) each of the appropriate subunit cRNAs. Recordings were made 2 to 15 days after injection.
Rat neuronal nAChR clones and mouse muscle nAChR cDNA clones were used. The wild-type clones were obtained from Dr. Jim Boulter (UCLA). The rat α6/3 (Dowell et al. J Neurosci, 2003, 23:8445-8452) clone was obtained from Michael McIntosh (University of Utah) and expressed in Xenopus oocytes in combinations with rat β2 and β3. […] The TM2 domain is understood to line the pore of the channel, with alpha helix structure. The 7′ position may actually be directed away from the actual pore lining, but this residue is highly conserved in all of the nAChR. It is valine in all of them except α9 (isoleucine) and β1, where it is alanine. The TM2 mutation in the α6/3 chimera was corrected by using QuickChange (Stratagene) according to their protocols. The corrected α6/3 chimera sequence was confirmed by restriction diagnostics and by automated fluorescent sequencing (University of Florida core facility). The corrected clone was expressed as above in Xenopus oocytes with β2 and β3 and compared to the wild-type α3 co-expressed with β2 and β3.
After linearization and purification of cloned cDNAs, RNA transcripts were prepared in vitro using the appropriate mMessage mMachine kit from Ambion Inc. (Austin, Tex.).
Electrophysiology. The majority of experiments were conducted using OpusXpress 6000A (Axon Instruments, Union City Calif.). OpusXpress is an integrated system that provides automated impalement and voltage clamp of up to eight oocytes in parallel. Cells were automatically perfused with bath solution, and agonist solutions were delivered from a 96-well plate. Both the voltage and current electrodes were filled with 3 M KCl. The agonist solutions were applied via disposable tips, which eliminated any possibility of cross-contamination. Drug applications alternated between ACh controls and experimental applications. Flow rates were set at 2 ml/min for experiments with α7 receptors and 4 ml/min for other subtypes. Cells were voltage-clamped at a holding potential of −60 mV. Data were collected at 50 Hz and filtered at 20 Hz. Agonist applications were 12 seconds in duration followed by 181-second washout periods for α7 receptors and 8 seconds with 241-second wash periods for other subtypes. For some experiments, particularly under conditions where residual inhibition precluded making repeated measurements from single cells (see below), manual oocyte recordings were made as previously described (Papke and Papke Br J of Pharmacol, 2002, 137:49-61). In brief, Warner Instruments (Hamden, Conn.) OC-725C oocyte amplifiers were used, and data were acquired with a minidigi or digidata 1200A with pClamp9 software (Axon Instruments). Sampling rates were between 10 and 20 Hz and the data were filtered at 6 Hz. […]

T1 sequence (P43143+P04757 fused with the stated changes): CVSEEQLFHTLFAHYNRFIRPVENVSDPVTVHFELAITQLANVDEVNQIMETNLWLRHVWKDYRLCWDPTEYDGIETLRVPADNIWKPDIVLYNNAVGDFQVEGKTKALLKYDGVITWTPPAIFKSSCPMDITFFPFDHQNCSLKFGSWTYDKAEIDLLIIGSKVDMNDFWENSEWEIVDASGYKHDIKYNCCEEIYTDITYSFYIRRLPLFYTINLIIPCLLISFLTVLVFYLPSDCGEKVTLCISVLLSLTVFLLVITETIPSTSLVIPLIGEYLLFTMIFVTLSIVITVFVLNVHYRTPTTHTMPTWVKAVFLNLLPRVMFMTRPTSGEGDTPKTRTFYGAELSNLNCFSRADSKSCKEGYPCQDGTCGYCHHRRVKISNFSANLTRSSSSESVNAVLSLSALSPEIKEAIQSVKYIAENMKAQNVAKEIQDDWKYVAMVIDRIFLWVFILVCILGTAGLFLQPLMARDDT
T1 sequence (P12390 25-500): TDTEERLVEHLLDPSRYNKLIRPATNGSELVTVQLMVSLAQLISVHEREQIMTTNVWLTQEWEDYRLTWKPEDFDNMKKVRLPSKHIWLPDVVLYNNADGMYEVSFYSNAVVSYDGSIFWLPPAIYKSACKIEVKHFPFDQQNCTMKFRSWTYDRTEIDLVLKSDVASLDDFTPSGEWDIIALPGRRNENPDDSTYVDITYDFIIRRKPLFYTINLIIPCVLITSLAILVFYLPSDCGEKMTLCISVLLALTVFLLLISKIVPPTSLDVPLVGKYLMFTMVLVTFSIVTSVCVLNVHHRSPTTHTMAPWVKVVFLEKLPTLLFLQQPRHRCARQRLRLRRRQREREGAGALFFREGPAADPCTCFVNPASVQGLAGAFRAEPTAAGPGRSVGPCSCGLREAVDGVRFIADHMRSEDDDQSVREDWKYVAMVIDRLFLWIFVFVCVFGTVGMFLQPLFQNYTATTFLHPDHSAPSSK
T1 sequence (P12391 31-464): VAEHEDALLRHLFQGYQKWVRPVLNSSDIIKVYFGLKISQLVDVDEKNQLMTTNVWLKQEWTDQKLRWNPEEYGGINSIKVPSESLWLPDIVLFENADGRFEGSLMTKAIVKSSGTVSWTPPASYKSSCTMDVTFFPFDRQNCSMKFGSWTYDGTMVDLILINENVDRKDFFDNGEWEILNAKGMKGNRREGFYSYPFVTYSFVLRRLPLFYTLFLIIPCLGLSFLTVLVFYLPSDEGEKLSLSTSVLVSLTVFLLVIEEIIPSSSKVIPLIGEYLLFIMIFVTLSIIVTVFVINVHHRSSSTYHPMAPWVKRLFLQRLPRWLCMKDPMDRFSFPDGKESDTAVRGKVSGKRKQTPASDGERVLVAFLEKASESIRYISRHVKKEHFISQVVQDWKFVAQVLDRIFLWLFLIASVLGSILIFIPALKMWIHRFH

In the case of `CCCCCCC(=O)OC1CC(C)(C)NC(C)(C)C1` [TMPH, 2,2,6,6-tetramethylpiperidin-4-yl heptanoate], the “effect on hypomotility induced by nicotine” value (mice; TMPH 20 mg/kg s.c. 15 minutes prior to nicotine (1.5 mg/kg)) is reported as “failed to significantly reduce”, the “Locomotor Activity # Interrupts (Mean ± SEM)” value (mice; TMPH (20 mg/kg)/Nicotine (1.5 mg/kg)) is reported as 397 ± 170 # Interrupts and the “Locomotor Activity # Interrupts (Mean ± SEM)” value (mice; TMPH (20 mg/kg)/Saline) is reported as 2031 ± 160 # Interrupts. The “blockade of nicotine-induced hypomotility” value (mice; TMPH @ 20 mg/kg) was 0% blockade @ 20, the “effect of TMPH by itself on locomotor activity” value (mice; s.c. injection, at the indicated doses and times) was “did not have a significant effect” and the IC50 (Rat α6/3β2β3; decrease in net charge, 100 μM ACh co-applied with TMPH, read-out: IC50 (area)) was 1000 ± 300 nM. The IC50 (Rat α6/3β2β3; decrease in peak current amplitude, 100 μM ACh co-applied with TMPH, read-out: IC50 (peak)) was 60000 ± 20000 nM, the IC50 (Rat α6/3β2β3; inhibition still present after 5-minute wash, read-out: IC50 (recovery)) was 2300 ± 500 nM and the “IC50 net charge/IC50 peak” value (Rat α6/3β2β3; ratio) was “.017”. The “IC50 recovery/IC50 net charge” value (Rat α6/3β2β3; ratio) was 2.0.
